Assay results taken from patent US6787541B1, “Thieno-and furopyrimidine derivatives as A2A-receptor antagonists” (Vernalis Research Limited, priority 1999, dated 2004).
Values belong to the molecule of their own block, whether it stands above or below them.

How the values were obtained:
cataleptic responses = conditions: cited from earlier work
[1] = test system: haloperidol-induced deficits in locomotor activity in mice; experiment: Haloperidol-induced hypolocomotion model; type: in vivo; conditions: intraperitoneally at a dose of 10 mg/kg
From the text: Haloperidol-induced Hypolocomotion Model
This approach is also considered a valid method for screening drugs with potential antiparkinsonian effects. Thus, the ability of novel adenosine antagonists to block haloperidol-induced deficits in locomotor activity in mice can be used to assess both in vivo and potential antiparkinsonian efficacy.
Female TO mice (25-30 g) obtained from TUCK, UK, are used for all experiments. Animals are housed in groups of 8 [cage size—40 (width)×40 (length)×20 (height)cm] under 12 hr light/dark cycle (lights on 08:00 hr), in a temperature (20±2° C.) and humidity (55±15%) controlled environment. Animals have free access to food and water, and are allowed at least 7 days to acclimatize after delivery before experimental use.
Liquid injectable haloperidol (1 ml Serenance ampoules from Baker Norton, Harlow, Essex, each containing haloperidol BP 5 mg, batch # P424) are diluted to a final concentration of 0.02 mg/ml using saline. Test compounds are typically prepared as aqueous suspensions in 8% Tween. […]
1.5 hours before testing, mice are administered 0.2 mg/kg haloperidol, a dose that reduces baseline locomotor activity by at least 50%. […] Horizontal locomotor activity is determined by placing the cages within a frame containing a 3×6 array of photocells linked to a computer, which tabulates beam breaks. […]

Parkinsonian patients = conditions: cited from earlier work
[2] = molecular target: T1, human adenosine A2A receptors expressed in HEK-293 cells (Homo sapiens, UniProt P29274); experiment: Binding affinities at hA2A receptors, displacement of [3H]-CGS 21680
T1 construct: expressed in transfected cells; host or cells: HEK-293 cells
T1 sequence (P29274 whole entry): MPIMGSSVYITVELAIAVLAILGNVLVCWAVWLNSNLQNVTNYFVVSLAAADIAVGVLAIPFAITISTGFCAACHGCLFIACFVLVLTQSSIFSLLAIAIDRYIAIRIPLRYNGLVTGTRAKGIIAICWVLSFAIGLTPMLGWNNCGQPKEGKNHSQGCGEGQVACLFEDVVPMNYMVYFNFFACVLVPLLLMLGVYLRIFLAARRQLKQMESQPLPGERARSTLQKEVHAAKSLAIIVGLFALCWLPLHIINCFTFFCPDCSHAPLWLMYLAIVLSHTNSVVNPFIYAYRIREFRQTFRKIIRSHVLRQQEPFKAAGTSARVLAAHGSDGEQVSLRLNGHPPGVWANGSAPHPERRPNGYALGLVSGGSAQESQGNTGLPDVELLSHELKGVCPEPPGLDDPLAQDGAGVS

Compound: CCCn1c(=O)c2c(nc(/C=C/c3ccc(OC)c(OC)c3)n2C)n(CCC)c1=O [KF 17837, (E)-8-(3,4-dimethoxystyryl)-1,3-dipropyl-7-methylxanthine]
anticataleptic effects of a subthreshold dose of L-DOPA plus benserazide (cataleptic responses; in vivo): potentiated | catalepsy induced by haloperidol and reserpine (cataleptic responses; in vivo): reduced | cataleptic responses induced by intracerebroventricular administration of CGS 21680 (cataleptic responses; oral administration): significantly ameliorated

Compound: O=C(c1cccs1)c1nc(N2CCC(O)CC2)nc2ccsc12 [Example 86, 2-(4-Hydroxypiperidin-1-yl)thieno[3,2-d]pyrimidin-4-yl 2-thienylmethanone]
reversal of haloperidol-induced hypolocomotion [1]: significantly reversed

Compound: Cn1c(=O)c2[nH]cnc2n(C)c1=O [theophylline, 1,3-dimethylxanthine]
mean objective disability scores (Parkinsonian patients; 15 Parkinsonian patients, up to 12 weeks, 150 mg/day oral): significant improvements | patients reporting moderate or marked subjective improvement (Parkinsonian patients; of 15 Parkinsonian patients, up to 12 weeks, 150 mg/day oral): 11 | serum theophylline levels (Parkinsonian patients; slow release oral theophylline preparation 150 mg/day, after one week): 4.44 mg/L

melting point: 194.5 to 195 °C | Ki [2]: 0.007 µM
Compound: Cc1ccsc1C(=O)c1nc(NCCO)nc2ccsc12 [Example 118, 2-(2-Hydroxyethylamino)thieno[3,2-d]pyrimidin-4-yl 3-methyl-2-thienylmethanone]

melting point: 127 to 129 °C | Ki [2]: 0.539 µM
Compound: Cc1ccc(C(=O)c2nc(C(F)(F)F)nc3ccsc23)cc1 [Example 29, 4-Methylphenyl 2-trifluoromethylthieno[3,2-d]pyrimidin-4-ylmethanone]
